Experimental data taken from PMC8805583, “Discovery of Herbacetin as a Novel SGK1 Inhibitor to Alleviate Myocardial Hypertrophy” (Advanced Science, 2021).

Experiments:
[1] = Pharmacokinetics and tissue distribution after single oral administration; format: in vivo, Sprague-Dawley rats; conditions: single oral dose 40 mg kg−1
Protocol: Finally, we evaluate the safety and pharmacokinetics of HBT to ensure its druggability. […] Single dose administration of HBT at 40 mg kg^−1 was uptaken rapidly with a maximal plasma concentration of ≈6.73 ng mL^−1 after 10 min (Figure S14A, Supporting Information).
Figure S13. Serum level of biochemical markers in mice of Ctrl and Ctrl + HBT groups. Data were analyzed using unpaired two-tailed t test and data were expressed as means ± SD, ns: no […]
Figure S14. Plasma concentration (A) and in vivo distribution (B) of HBT after single oral administration with dosage of 40mg/kg rat weight (n=5-6). The quantitation of HBT was performed by LC-MS/MS analysis. […]
(§1) or Fluo-4 AM working solution was added to each well and incubated at 37℃ for 20 minutes.
(§2) Then the cells were washed with PBS for 3 times and images were acquired using an ImageXpress Micro® Confocal High-Content Imaging System (Molecular Devices). The mean fluorescence intensity of cells positive for DCFH-DA or Fluo-4 AM staining was […]
4. Histology and Immunohistochemistry (IHC)
At the end of the experiment, mice were sacrificed and the hearts were harvested, fixed in 4% formalin, and paraffin embedded. Fibrosis was detected with Masson’s trichrome staining kit (Sigma) according to the manufacturer’s protocol. SGK1 expression of cardiomyocytes was determined by staining cells with antibodies specific for SGK1.
RT-PCR was performed to validate DEGs in the FoxO signaling pathway in response to Ext.R and also HBT’s effect on hypertrophic cardiomyocytes stimulated with phenylephrine. Total RNA isolation, reverse transcription and quantitative RT-PCR were performed using an Ultrapure RNA Kit, a HiFiScript First Strand cDNA Synthesis Kit, and an UltraSYBR Mixture Kit (CWBIO) respectively, according to the manufacturer's instructions. Relative target gene mRNA expression level was normalized to GAPDH. Primer sequences of genes […]
6. Pharmacokinetics studies
Twelve male Sprague-Dawley rats, weighing 250 ± 10 g, were purchased from Huafukang biological technology (Beijing, China). […]

rat cardiomyocytes = assay: ROS (DCFH-DA) and Ca2+ (Fluo-4 AM) detection in PE-stimulated cardiomyocytes; format: cell-based
From the text: Elevated cytoplasmic calcium was also observed in PE‐stimulated rat cardiomyocytes after Fluo‐4 AM staining. […] Since the channel subunit Orai1 and stromal interaction molecule 1 (STIM1) are known to participate in the orchestration of Ca^2+ entry into cells and are regulated by multiple kinases including SGK1,^[ [33] ^] we examined if HBT regulates their activities. […] Orai1 may be regulated by Nedd4‐like E3 ubiquitin protein ligase (Nedd4l) mediated degradation or the transcription factor nuclear factor‐κB (NF‐κB) dependent transcription, so we detected the effects of HBT on SGK1 downstream proteins. […] Therefore, HBT may also attenuate cardiomyocyte hypertrophy by reducing cytoplasmic calcium level.
Fluo-4 AM were obtained from Beyotime. SGK1 antibody and GAPDH antibody were obtained from Beyotime. FoxO1, Phospho-FoxO1 (Ser256), p44/42 MAPK (Erk1/2), […]
p65, Phospho-GSK-3β (Ser9), GSK-3β, Phospho-NDRG1 (Thr346), NDRG1, Phospho-NEDD4L (Ser342), NEDD4L, HO-1, Nrf2 and MnSOD antibody were obtained from Cell Signaling. Phospho-SGK1(S422) antibody was obtained from Affinity. Orai1, STIM1, ACTA1 and FLAG antibody were obtained from Proteintech. BNP antibody was obtained from Abcam. ANP antibody was obtained from Santa Cruz Biotechnology. Myosin antibody was obtained from Sigma-Aldrich. Reference compounds were obtained from Shanghai Yuanye Biotechnology. Lipofectamine 2000 transfection reagent was purchased from Invitrogen. Protein A/G agarose was purchased from Beaver Biotechnology.
Phenylephrine (PE) was obtained from Aladdin. Deionized water was prepared with an Elga PURELAB flex system (ELGA LabWater, UK). […]
Micro® Confocal High-Content Imaging System (Molecular Devices). […]
BSA for 1 h, the cells were incubated overnight at 4 °C with rabbit anti-FoxO1 antibody and then with goat anti-rabbit AlexaFluor 488–conjugated antibody for 1 h at room temperature.
Nuclei were stained with Hoechst. Images were acquired using a high-resolution laser confocal microscope (Leica) using an oil immersion A-Plan ×63 objective.
3. ROS and Ca2+ Detection
ROS and Ca2+ levels were detected using DCFH-DA and Fluo-4 AM reagent (Beyotime) respectively according to the manufacturer’s instructions. After incubated for 48 hours, the supernatant was removed and cells were washed with PBS for three times. 100 μL DCFH-DA […]
as §1, §2
4. Histology and Immunohistochemistry (IHC) […]
(Sigma) according to the manufacturer’s protocol. […]

SMILES: O=c1c(O)c(-c2ccc(O)cc2)oc2c(O)c(O)cc(O)c12 [HBT, herbacetin]
- Tmax ([1]; male, Sprague-Dawley, plasma, rat, read-out: time of maximal plasma concentration (converted)): 10 min
- tissue distribution (heart, liver, kidney) ([1]; at time of maximal plasma concentration): readily detected
- maximal plasma concentration ([1]; rat): ≈ 6.73 ng mL^−1
- cytoplasmic calcium accumulation, Fluo-4 AM staining (rat cardiomyocytes; PE stimulation, cotreatment): effectively blocked
- free radicals (ROS), DCFH-DA staining (rat cardiomyocytes; PE stimulation, cotreatment): greatly inhibited
- MnSOD expression (rat cardiomyocytes; PE, western blot): restored
- phosphorylation level of Erk (rat cardiomyocytes; PE, western blot): downregulated
